Where “and” joins values, the source holds several entries; their conditions need not be identical. Equal entries are not always repeated.
How the values were obtained:
[1] = system: actin.PsoS1; test: ADP dissociation constant (KADP) by competitive inhibition of ATP-induced dissociation, psoas; type: binding, rabbit; conditions: for kobs of ATP-induced dissociation with ADP present: 25 µM ATP, 20°C
Method: In a similar process, ADP dissociation constant (KADP), which defines ADP affinity for actin.S1, was measured by adding to the mixture ADP as a competitive inhibitor of ATP binding. […] This approach assumes that ADP is in rapid equilibrium with the actin.S1 complex on the time scale of the ATP-induced dissociation reaction. This was ensured by using the low (25 µM) concentration of ATP. That this assumption holds was tested by repeating the measurement with ADP preincubated with actin.S1 and then mixing with ATP. The observed rate constants were identical in each case.
(§1) (4)) kobs=K1k+2[ATP]/[1+([I]/KI)]

[2] = target: T1, actin.MassS1 (Bos taurus, UniProt Q9BE39); test: ADP dissociation constant (KADP) by competitive inhibition of ATP-induced dissociation, masseter; type: binding, bovine; conditions: for kobs of ATP-induced dissociation with ADP present: 25 µM ATP, 20°C, pH 7.0
T1 construct: from tissue; host or cells: bovine masseter muscle (myosin); rabbit muscle (actin)
Method: In a similar process, ADP dissociation constant (KADP), which defines ADP affinity for actin.S1, was measured by adding to the mixture ADP as a competitive inhibitor of ATP binding. In this case it is convenient to add the ADP to the ATP solution, i.e., 0.5 µM pyr.actin.S1 was mixed with 25 µM ATP with various concentrations of ADP present with the ATP (from 0 to 1200 µM). This approach assumes that ADP is in rapid equilibrium with the actin.S1 complex on the time scale of the ATP-induced dissociation reaction. This was ensured by using the low (25 µM) concentration of ATP. That this assumption holds was tested by repeating the measurement with ADP preincubated with actin.S1 and then mixing with ATP. The observed rate constants were identical in each case.
as §1

[3] = target: actin.PsoS1; test: ADP dissociation constant in the presence of phosphate (KADP+Pi) and calculated KPi app, psoas; type: binding, rabbit; conditions: 30 mM Pi
[4] = target: T1, actin.MassS1; test: ADP dissociation constant in the presence of phosphate (KADP+Pi) and calculated KPi app, masseter; type: binding, bovine; conditions: 15 mM Pi
[5] = target: T1, actin.MassS1; test: ADP release rate constant (k-AD), ADP displacement by excess ATP; type: biochemical, bovine; set-up: effect of Pi on kobs of ADP release / increase in kobs of ADP release in the presence of phosphate / activation energy (Ea) of k−AD (ADP release): dose or concentration left out as unconfirmed; conditions: for kobs of ADP release (fast phase): 75 µM ADP displaced by 8 mM ATP; for activation energy (Ea) of k−AD (ADP release): Mass
Method: Two types of myosins were studied which are known to differ in their dissociation constant for nucleotides ([5], [51]). The rate constant for the release of ADP (k−ADP) is relatively slow for masseter S1 and can easily be measured in an ADP displacement experiment. This step is very fast for a fast muscle isoform and too fast to measure by current equipment. Briefly, actin.^MassS1 saturated with 75 µM of ADP (A.M.D complex) was mixed with a large excess of ATP (8 mM) in the stopped flow. Then the kobs values, fitted to a single exponential equation (Eqn 1) defined the rate constant by which ADP is released by the ternary A.M.D complex (k−AD).
The temperature dependence of the above studied biochemical steps K1k+2, KADP, KPi, and KADP+Pi data were plotted as the natural logarithm of the measured parameter against the reciprocal of temperature in degrees Kelvin (1/T °K) and fitted with linear regression using the Arrhenius (rate constants) or Van’t Hoff (equilibrium constants) equations(7)) lnK1k+2=ln(A)−Ea/RT (8)) lnKeq=ΔS°/R−ΔH°/RT where Ea stands for activation energy, R is the gas constant, and A is a preexponential factor. The values of –Ea/R or or ΔH°/R were derived from the slopes.

[6] = target: T1, actin.MassS1; set-up: method as in Bloemink et al. (4); conditions: ref Bloemink et al. (4); cited from earlier work

- Kd ([1]; Psoas S1, pH 6.2, 10°C, read-out: KADP): 256 ± 32 µM
- Kd ([1]; Psoas S1, pH 6.2, 20°C, read-out: KADP): 228 ± 36 µM
- Kd ([1]; Psoas S1, pH 6.2, 30°C, read-out: KADP): 236 ± 29 µM
- Kd ([1]; Psoas S1, pH 7.0, 10°C, read-out: KADP): 201 ± 34 µM
- Kd ([1]; Psoas S1, pH 7.0, 20°C, read-out: KADP): 203 ± 13 µM
- Kd ([1]; Psoas S1, pH 7.0, 30°C, read-out: KADP): 232 ± 29 µM
- Kd ([1]; psoas actin.S1, between 10 and 30°C, pH 7.0, read-out: ADP affinity (KADP)): ~200 µM
- kobs of ATP-induced dissociation with ADP present ([2]; 25 µM ADP): 21.7 s⁻¹
- kobs of ATP-induced dissociation with ADP present ([2]; 100 µM ADP): 9.1 s⁻¹
- kobs of ATP-induced dissociation with ADP present ([2]; 500 µM ADP): 2.6 s⁻¹
- weakening of KADP at pH 6.2 vs pH 7.0 ([2]; MassS1, 30°C): 1.5 fold
- Kd ([2]; Masseter S1, pH 6.2, 10°C): 22 µM and 21.8 µM
- Kd ([2]; Masseter S1, pH 6.2, 20°C): 48.4 µM and 47 µM and 46.8 µM
- Kd ([2]; Masseter S1, pH 6.2, 30°C): 83.9 ± 4.7 µM
- Kd ([2]; Masseter S1, pH 7.0, 10°C): 9.6 µM and 10 µM and 10.3 µM
- Kd ([2]; Masseter S1, pH 7.0, 20°C): 31 µM and 31.3 µM and 29.7 µM
- Kd ([2]; Masseter S1, pH 7.0, 30°C): 56.2 ± 6.5 µM
- Kd ([3]; Psoas S1, pH 6.2, 10°C, read-out: KADP+Pi): 665 ± 39 µM
- Kd ([3]; Psoas S1, pH 6.2, 20°C, read-out: KADP+Pi): 514 µM
- Kd ([3]; Psoas S1, pH 6.2, 30°C, read-out: KADP+Pi): 926 ± 73 µM
- Kd ([3]; Psoas S1, pH 7.0, 10°C, read-out: KADP+Pi): 770 ± 37 µM
- Kd ([3]; Psoas S1, pH 7.0, 20°C, read-out: KADP+Pi): 919 ± 72 µM
- Kd ([3]; Psoas S1, pH 7.0, 30°C, read-out: KADP+Pi): 942 µM and 1020 µM
- Kd ([3]; psoas, 10–20°C, pH 7.0, read-out: apparent KADP in the presence of Pi): ~500 µM
- Kd ([4]; Masseter S1, pH 6.2, 10°C): 52.2 ± 4.2 µM
- Kd ([4]; Masseter S1, pH 6.2, 20°C): 82.6 ± 5.7 µM
- Kd ([4]; Masseter S1, pH 6.2, 30°C): 175 µM
- Kd ([4]; Masseter S1, pH 7.0, 10°C): 22.5 ± 2.9 µM
- Kd ([4]; Masseter S1, pH 7.0, 20°C): 44.4 ± 4.6 µM
- Kd ([4]; Masseter S1, pH 7.0, 30°C): 79.3 ± 6.5 µM
- kobs of ADP release (fast phase) ([5]; pH 7.0, 5°C): 16.2 s⁻¹
- kobs of ADP release (fast phase) ([5]; pH 7.0, 10°C): 26.0 s⁻¹
- kobs of ADP release (fast phase) ([5]; pH 7.0, 20°C): 85 s⁻¹ and 85.0 s⁻¹
- kobs of ADP release (fast phase) ([5]; pH 7.0, 30°C): 273 s⁻¹
- kobs of ADP release (fast phase) ([5]; pH 7.0, […]°C): 46.3 s⁻¹
- activation energy (Ea) of k−AD (ADP release) ([5]; pH 6.2, + […] mM Pi): 21.2 ± 0.932 kcal/mol
- activation energy (Ea) of k−AD (ADP release) ([5]; pH 6.2, no Pi): 20.2 ± 1.46 kcal/mol
- activation energy (Ea) of k−AD (ADP release) ([5]; pH 7.0, + […] mM Pi): 22.6 ± 1.2 kcal/mol
- activation energy (Ea) of k−AD (ADP release) ([5]; pH 7.0, no Pi): 18.1 ± 0.98 kcal/mol
SMILES: Nc1ncnc2c1ncn2[C@@H]1O[C@H](COP(=O)(O)OP(=O)(O)O)[C@@H](O)[C@H]1O [ADP]
- kobs of ATP-induced dissociation with ADP present ([1]; 0.25 mM ADP, pH 7.0): 45.9 s⁻¹
- kobs of ATP-induced dissociation with ADP present ([1]; 1 mM ADP, pH 7.0): 21.4 s⁻¹
- kobs of ATP-induced dissociation with ADP present ([1]; 4 mM ADP, pH 7.0): 14.5 s⁻¹
- kobs of ADP release, published result [6]: 94 s⁻¹

— PMC5814585, “Modulators of actin-myosin dissociation: basis for muscle type functional differences during fatigue” (American Journal of Physiology - Cell Physiology, 2017)
